Experimental data from patent US5330973A, “Lipopeptide derivatives” (Merck & Co., Inc., priority 1990, dated 1994).

Legend:
[1] = system: Pneumocystis carinii; assay: Pneumocystis carinii pneumonia in immunosuppressed rats, elimination of cysts; type: in vivo, Sprague-Dawley rats; settings: I.P. twice daily for four days, lungs read by microscopic analysis of stained slides
Protocol: In a representative study, the effectiveness of Compound A-2a was determined. Sprague-Dawley rats (weighing approximately 250 grams) were immuno-suppressed with dexasone in the drinking water (2.0 mg/L) and maintained on a low protein diet for five weeds to induce the development of pneumocystis pneumonia from a latent infection. […] Six rats (weighing approximately 150 grams) were injected twice daily for four days intraperitoneally (I.P.) with Compound A-2a in 0.25 ml of vehicle (distilled water). A vehicle control was also carried out. All animals continued to receive dexasone in the drinking water and low protein diet during the treatment period. At the completion of the treatment, all animals were sacrificed, the lungs were removed and processed, and the extent of disease determined by microscopic analysis of stained slides.
In a similar experiment, the animals were sacrificed, the lungs removed and processed, and the extent of disease determined by microscopic analysis of stained slides.

[2] = system: C. tropicalis; assay: Minimum fungicidal concentration, microbroth dilution assay in YNBD; type: cell-based; settings: C. tropicalis MY 1012
Protocol: (§1) The compounds of the present invention are active against many fungi and particularly against Candida species. […] In carrying out the assay, Compound A-2a and A-3a were solubilized in 10% dimethyl sulfoxide (DMSO) and diluted to 2560 μg/ml. The compounds were then diluted to 256 μg/ml in YNBD. […] of the suspension was dispensed to the top row of a 96-well plate (each well containing 0.15 ml of YNDB) resulting in a drug concentration of 128 μg/ml. Two-fold dilutions were then made from the top row to obtain final drug concentrations ranging from 128 to 0.06 μg/ml. The yeast cultures, maintained on Sabouraud dextrose agar were transferred to YM broth (Difco) and incubated overnight at 35° C. with shaking (250 rpm). […] The microplates were incubated at 35° C. for 24 hours. The minimum inhibitory concentrations (MICs) were recorded as the lowest concentrations of drug showing no visible growth. After recording the MIC, the plates were shaken to resuspend the cells. Thereafter, […] samples from the wells in the 96-well microplate were transferred to a single well tray containing Sabouraud dextrose agar. The inoculated trays were incubated 24 hours at 28° C. and then read. […]

[3] = system: C. parapsilosis; assay: as above; type: cell-based; settings: C. parapsilosis MY 1010
Protocol: as §1

[4] = system: C. albicans; assay: as above; type: cell-based
Protocol: as §1

Substance | ED90 for eliminating P. carinii cysts [1] | Minimum Fungicidal Concentration [2] [µg/mL] | Minimum Fungicidal Concentration [3] [µg/mL] | Minimum Fungicidal Concentration ([4]; C. albicans MY 1028) [µg/mL] | Minimum Fungicidal Concentration ([4]; C. albicans MY 1055) [µg/mL] | Minimum Fungicidal Concentration ([4]; C. albicans MY 1208) [µg/mL]
1-[4-hydroxy-N2-(10,12-dimethyl-1-oxotetradecyl)-ornithine]-4-[3-hydroxy-4' -O-phosphoryl-homotyrosine]-5-[3-hydroxyglutamine]echinocandin B [Compound A-2a] | approximately 2 mg/kg | 0.5 | 16 | 1 | 1 | 1
1-[N2-(10,12-dimethyl-1-oxotetradecyl)-ornithine]-4-[3,4-dihydroxy-4'-O-pho sphoryl-homotyrosine]-5-[3-hydroxyglutamine] echinocandin B [Compound A-3a] | approximately 2.5 mg/kg | 1 | > 128 | 4 | 2 | 4
